A short description of data set [1]: Lago optical imaging of in vivo tumor delivery of Cy5.5-labeled Camptothesome-4. The arrangement: species or system BALB/c mice. Particulars: SC CT26 tumor mice, entire monitored period (24 h). The procedure: M ice were imaged at 0 h (prior to drug administration), and 2.5, 8, 12, and 24 h post IV injection (excitation=675 nm; emission=710 nm). At 24 h, tumors, heart, liver, spleen, lung, and kidneys were imaged using Lago optical imager. For tumor penetration investigation, tumors were frozen in an acetone/dry ice mixture prior to immunofluorescence examination. The tumor blood vessels were stained with a primary anti-CD31 (a.k.a. PECAM-1) antibody (Abcam, ab28364, 1:50), followed by an Alexa Fluor 488-conjugated secondary antibody (Abcam, ab150073, 1:400). DAPI was used to localize the cellular nuclei. Tumor tissues were cut into […] slide section by University of Arizona TACMASR and subject to the confocal laser scanning microscopy using Leica SP5-II confocal microscope (Buffalo Grove, IL) at University of Arizona Cancer Center Imaging Core.

Data set [2] concerns MC38 tumor. The data set can be described thus: Therapeutic efficacy in SC MC38 tumor bearing mice. In kind it is in vivo, C57BL/6 mice. As to conditions: ˜300 mm^3, single IV at eq. 20 mg CPT/kg and 6.7 mg DOX-IND/kg. As to the method: In FIG. 8I-8J, 2×10^5 cells/mouse in 100 μL of serum free medium were SC injected to C57BL/6 (n=6). […] Mice survival rate was closely monitored every day.
Mouse weight was monitored every 3 days, and mice survival was monitored every day.
In FIG. 16E-161, 4×10^5 cells/mouse in 100 μL of serum free medium were SC injected to C57BU6 (n=6). Mice were IV injected once with various treatments at equivalent (eq.) 20 mg CPT/kg and 6.7 DOX-IND mg/kg when tumors grew to ˜300 mm^3. α-CD8 (BioXCell, clone 53-6.7) was IP injected at 200 μg/mouse/3 days from day 17. On day 23, mice were euthanized, and tumor tissues were isolated and equally cut into 3 pieces; one part for IHC staining for CD8, Foxp3, Calreticulin, IFN-γ, Perforin, Granzyme B, CC-3) by University of Arizona TACMASR; another two parts for Western blotting of P-S6K and RT-PCR for IL-6, respectively. Mouse weight was monitored every 3 days, and mice survival was monitored every day.
In FIG. 16K-16N, 2×10^5 cells/mouse were SC injected to C57BL/6 (n=5). When tumors reached ˜400 mm^3, mice received a single IV injection with various treatments at eq. […] Mouse weight was monitored every 3-4 days, and mice survival was monitored every day.

Data set [3] in a line: Pharmacokinetics in orthotopic CT26-Luc tumor-bearing mice. Particulars: for AUC(0-inf) / AUC(0-t) / MRT / half-life: BALB/c, mouse, plasma, iv; for AUMC / CL / V / Vss: single IV, nanovesicles 6.7/20 mg DOX-IND/CPT/kg. As to the method: The various pharmacokinetics parameters were assessed by one-compartmental model using PKSolver software.
The test system of data set [4] is CT26 tumor. Kind of data set: Therapeutic efficacy in SC CT26 tumor bearing mice. In kind it is in vivo, BALB/c mice. As to conditions: single IV on day 9 (˜50 mm^3); free CPT 5 mg/kg, Camptothesomes and Onivyde 20 mg CPT or irinotecan/kg. As to the method:
1×10^5 CT26 cells in 100 μL of serum free medium were SC injected in the right flank of the BALB/c mice (n=5 or 6). […] To determine the effect on survival rate in each group (n=6). Kaplan-Meier plots were used to express animal survival rate. For the efficacy study in FIG. 8D-8H, mice were euthanized on day 21; tumors were collected and soaked in 4% paraformaldehyde overnight prior to the immune phenotypic [CD8, Granzyme B, Perforin, Cleaved caspase-3 (CC-3), and IFN-γ] analysis using IHC staining by University of Arizona TACMASR.

A short description of data set [5]: Maximum tolerated dose (MTD) and systemic toxicity in healthy mice. The data set is classed as in vivo, BALB/c mice. Particulars: for Animal Death / Weight Loss: n=3, 14 days. The procedure:
Changes in body weight and survival of mice were followed every 1-2 days for two weeks. […] On day 14 post drug injection, blood was withdrawn by cardiac puncture and major organs (e.g., heart, liver, and kidneys) were collected. Blood was collected in lithium heparin tubes (BD Microtainer™) followed by centrifuging at 2,000×g for 10 minutes in a refrigerated centrifuge. The supernatant (serum) was sent to University of Arizona University Animal Care Pathology Services Core for a series of serum chemistry analysis. The whole blood in dipotassium EDTA tube (BD Microtainer™) were used for leukocytes, erythrocytes, and thrombocytes analysis. Mice organs from MTD dose and vehicle control groups were placed in a 4% paraformaldehyde solution for 24 h and then sent to Tissue Acquisition and Cellular/Molecular Analysis Shared Resource (TACMASR) at University of Arizona Cancer Center for histopathological analysis.

Data set [6] in a line: Blood kinetics of CPT in SC CT26 tumor bearing mice.
Experimental: Following a single IV injection via tail vein of free CPT (5 mg CPT/kg, MTD) and different Camptothesomes (20 mg CPT/kg) to SC CT26 tumor bearing mice (n=3, ˜300 mm^3), blood was withdrawn at 0.083, 0.333, 1, 2.5, 8, 12 and 24 h and plasma (via plasma tube, BD Microtainer™) was collected and digested in methanol (90 μL methanol/10 μL serum) for HPLC analysis to measure the released CPT and SM-derived CPT conjugates. 24 h after drug IV administration, tumor tissues and major organs (heart, liver, spleen, lung, and kidneys) were collected, weighed, and then homogenized in acidified methanol (0.075 M HCl, 900 μL/100 mg tissues) followed by drug content determination using an established HPLC method. […] Mice were sacrificed at 2.5 h and 72 h post drug administration, the drug content in the collected tumor tissues and organs were processed, and analyzed as described above.
Setting [7] is: Blood kinetics of CPT, free CPT 5 mg/kg.
Setting [8] is: BALB/c, mouse, plasma, iv, 5 mg/kg.
The mark [9] stands for this setting: single IV, free CPT 5 mg/kg, Camptothesomes 20 mg CPT/kg, SC CT26 tumor mice, n=3.
Setting [10] is: Blood kinetics of IND, IND 1.7 mg/kg.

The values that follow come from patent US20240009321A1, “IMMUNOGENIC NANOVESICLES FOR CANCER IMMUNOTHERAPY” (Arizona Board of Regents on Behalf of the University of …, priority 2020, published 2024).

For the molecule “1,2-dioleoyl-sn-glycero-3-phosphoethanolamine-N-(cyanine 5.5) [Free DSPE-Cy5.5]”, the “fluorescence signal in tumors” value in data set [1] is on record as “no observable signal in tumors”.

In the case of `COc1cccc2c1C(=O)c1c(O)c3c(c(O)c1C2=O)C[C@@](O)(/C(CO)=N\NC(=O)OCCSSCCOC(=O)C(N)Cc1cn(C)c2ccccc12)C[C@@H]3O[C@H]1C[C@H](N)[C@H](O)[C@H](C)O1` (stereo in doubt) [DOX-IND, 2-((2-((1-methyl-D-tryptophyl)oxy)ethyl)disulfanyl)ethyl (Z)-2-(1-((2S,4S)-4-(((2R,4S, 5S, 6S)-4-amino-5-hydroxy-6-methyltetrahydro-2H-pyran-2-yl)oxy)-2,5,12-trihydroxy-7-methoxy-6,11-dioxo-1,2,3,4,6,11-hexahydrotetracen-2-yl)-2-hydroxyethylidene)hydrazine-1-carboxylate], the “tumor growth in large MC38 tumors” value in data set [2] was “did not show significant tumor growth inhibition”.

A word on the AUC(0-inf): it is the area under the concentration-time curve extrapolated to infinity. Low readings indicate low exposure, high ones high exposure. As usually defined, the AUC(0-t) is the area under the concentration-time curve up to a stated or last time point. Higher therefore signals high exposure. As usually defined, the MRT is the average time that molecules of a dose stay in the body. What is called half-life is the time needed for the level to fall by half in the phase considered. A higher half-life goes with slow loss. For orientation: MTD means the largest dose that counted as tolerated. Low values mean a narrow tolerated range, high ones a wide tolerated range. In data set [3] (5 mg/kg), `CC[C@@]1(O)C(=O)OCc2c1cc1n(c2=O)Cc2cc3ccccc3nc2-1` [Free CPT, (S)-(+)-camptothecin] gave an AUC(0-inf) of 9480 ± 880 ng·h/mL, an AUC(0-t) of 9470 ± 870 ng·h/mL, an MRT of 51.6 ± 2.4 min and a half-life of 3.6 ± 0.6 min. Besides, in data set [3] (setting [7]), the AUMC worked out at 8.12 ± 0.38 μg/mL*h2, the CL is 10.62 ± 1.00 μg/(μg/mL)/h, the V was 0.77 ± 0.23 μg/(μg/mL) and the Vss is 9.16 ± 1.30 μg/(μg/mL). Further, in data set [4], the tumor growth result is reported as “significant tumor reduction”. Further, in data set [5] (Dose 5 mg/kg, single IV), the “Animal Death” value is on record as 0/3 and the “Weight Loss” value worked out at 1.82%. Besides, the “Animal Death” value in data set [5] (Dose 7.5 mg/kg, single IV) was 1/3. In addition, the “Animal Death” value in data set [5] (Dose 10 mg/kg, single IV) is 1/3. Besides, in data set [5] (Dose 12.5 mg/kg, single IV), the “Animal Death” value was 0/3 and the “Weight Loss” value is 25.35%. Besides, in data set [5] (at MTD, day 14 post IV injection), the “systemic toxicity (serum chemistry, blood counts, H&E of organs)” value is reported as “severe systemic toxicities”. In data set [5] (mouse, in vivo, single IV, healthy BALB/c mice, 14 days, no death, not more than 15% weight loss), this molecule yielded an MTD at 14 days of 5 mg/kg. The same molecule had a half-life in data set [6] (BALB/c, mouse, in vivo, iv, 5 mg/kg) of 4.2 ± 0.6 min. Further, in data set [6] (setting [8]), the AUC(0-inf) turned out to be 11200 ± 1520 ng·h/mL, the AUC(0-t) came out at 11000 ± 1550 ng·h/mL and the MRT worked out at 351 ± 24.6 min. In data set [6] (SC CT26 tumor mice, single IV), the “elimination from blood / circulation half-life” value is reported as “rapidly eliminated from blood”. In data set [6] (setting [9]), this molecule gave an AUMC of 65.42 ± 6.99 μg/mL · h^2, a CL of 36.06 ± 5.00 µg/µg/mL/h, a V of 26.44 ± 0.27 µg/µg/mL and a Vss of 211.68 ± 38.45 µg/µg/mL.

As to `Cn1cc(C[C@@H](N)C(=O)O)c2ccccc21` [Free IND, 1-methyl-D-tryptophan], in data set [3] (1.7 mg/kg), the AUC(0-inf) was 5670 ± 540 ng·h/mL, the exposure AUC(0-t) stood at 5660 ± 530 ng·h/mL, the MRT stood at 24.6 ± 5.4 min and the half-life was 4.8 ± 1.2 min. In data set [3] (setting [10]), the AUMC was 2.38 ± 0.71 μg/mL*h2, the CL is 12.08 ± 1.17 μg/(μg/mL)/h, the V was 4.94 ± 0.63 μg/(μg/mL) and the Vss is listed as 4.95 ± 0.63 μg/(μg/mL).
